Literature values as cited in paper PMC8124668, “Preclinical Assessment Addressing Intravenous Administration of a [^68Ga]Ga-PSMA-617 Microemulsion: Acute In Vivo Toxicity, Tolerability, PET Imaging, and Biodistribution” (Molecules, 2021).

System: male rats
Design: method as in PMID 28283702
Settings: once weekly IV bolus on days 1, 8, 15 and 22, at 400 mg/kg

O=C(O)CCC(NC(=O)NC(CCCCNC(=O)C(Cc1ccc2ccccc2c1)NC(=O)C1CCC(CNC(=O)CN2CCN(CC(=O)O)CCN(CC(=O)O)CCN(CC(=O)O)CC2)CC1)C(=O)O)C(=O)O (stereo not shown) [PSMA-617, 2-[3-(1-Carboxy-5-{3-naphthalen-2-yl-2-[(4-{[2-(4,7,10-tris-carboxymethyl-1,4,7,10-tetraaza-cyclododec-1-yl)-acetylamino]-methyl}-cyclohexanecarbonyl)-amino]-propionylamino}-pentyl)-ureido]-pentanedioic acid]
local or systemic intolerance reactions: No signs of local or systemic intolerance reactions
